Measurements taken from BindingDB's records for patent US12344612 (Genentech, 2025).

Target: T1, Receptor-interacting serine/threonine-protein kinase 1 (Homo sapiens, UniProt Q13546)
T1 sequence (Q13546 whole entry): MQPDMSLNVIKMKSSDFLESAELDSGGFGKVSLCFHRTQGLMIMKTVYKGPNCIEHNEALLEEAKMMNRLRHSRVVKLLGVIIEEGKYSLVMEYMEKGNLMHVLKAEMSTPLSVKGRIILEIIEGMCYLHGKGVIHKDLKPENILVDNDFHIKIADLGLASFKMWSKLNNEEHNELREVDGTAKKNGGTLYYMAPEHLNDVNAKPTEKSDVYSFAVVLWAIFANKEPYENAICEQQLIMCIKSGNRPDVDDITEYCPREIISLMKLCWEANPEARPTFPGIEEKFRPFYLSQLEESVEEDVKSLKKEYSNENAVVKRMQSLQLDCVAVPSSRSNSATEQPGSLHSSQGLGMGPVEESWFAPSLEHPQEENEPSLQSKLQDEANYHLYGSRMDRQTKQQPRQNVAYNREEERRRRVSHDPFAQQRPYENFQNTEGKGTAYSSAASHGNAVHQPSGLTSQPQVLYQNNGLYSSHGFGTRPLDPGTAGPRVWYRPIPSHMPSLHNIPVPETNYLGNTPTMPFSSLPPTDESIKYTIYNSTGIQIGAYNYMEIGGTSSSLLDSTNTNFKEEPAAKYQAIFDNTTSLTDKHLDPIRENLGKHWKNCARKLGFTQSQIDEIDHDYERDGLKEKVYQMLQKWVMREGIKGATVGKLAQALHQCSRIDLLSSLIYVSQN
Experiment: Not found
From the text: Not found

Ki: 0.051 µM
Compound: O=C(c1nc2n(n1)CC[C@H]2c1ccccc1)C1CC1 (single isomer, unassigned) [US12344612, Example 10]
